Experimental data: patent publication US11026940B2, “Compositions for the mobilization, homing, expansion and differentiation of stem cells and methods of using the same” (Ampio Pharmaceuticals, Inc., priority 2013, dated 2021)
“And” between values parts separate entries of the source, which are not always exact repeats. Identical values can stand only once.

Columns and labels:
Format in all cases: cell-based, human
[1] = test system: Collagen 2A1; test: Stem cell chondrogenesis, real time PCR gene expression: Collagen 2A1; conditions: for Cp Coll / Mean regulation: Collagen 2A1; for Cp Coll / Mean regulation / Mean ΔCp / ΔCp: Day 22; for Mean regulation: vs saline; for Mean ΔCp / ΔCp: Collagen 2A1 vs GAPDH; for regulation, Collagen 2A1 / Mean regulation, Collagen 2A1: fold regulation vs saline; for regulation, Collagen 2A1 / ΔCp, Collagen 2A1 / 2^-ΔΔCp vs saline, Collagen 2A1 / ΔΔCp vs saline, Collagen 2A1: single replicate well; for Mean regulation, Collagen 2A1 / Mean ΔCp, Collagen 2A1: triplicate wells; for ΔCp, Collagen 2A1: human bone marrow MSC, chondrogenic medium + TGF beta 3; for ΔCp, Collagen 2A1 / 2^-ΔΔCp vs saline, Collagen 2A1 / ΔΔCp vs saline, Collagen 2A1 / Mean ΔCp, Collagen 2A1: vs Actin
[2] = test system: TIMP1; test: Stem cell chondrogenesis, real time PCR gene expression: TIMP1; conditions: Day 22; for Cp TIMP1 / 2-^ΔΔCp vs saline / Mean regulation / regulation: TIMP1; for Mean regulation / regulation: vs saline; for Mean ΔCp / ΔCp: TIMP1 vs Actin
[3] = test system: SOX9; test: Stem cell chondrogenesis, real time PCR gene expression: SOX9; conditions: Day 14; for regulation, SOX9 / Mean regulation, SOX9: fold regulation vs saline; for regulation, SOX9 / ΔCp, SOX9 / 2^-ΔΔCp vs saline, SOX9 / ΔΔCp vs saline, SOX9: single replicate well; for Mean regulation, SOX9 / Mean ΔCp, SOX9: triplicate wells; for ΔCp, SOX9: human bone marrow MSC, chondrogenic medium + TGF beta 3; for ΔCp, SOX9 / 2^-ΔΔCp vs saline, SOX9 / ΔΔCp vs saline, SOX9 / Mean ΔCp, SOX9: vs Actin
Description: The treatment protocol included expanding 5 HUXMA stem cells in 182 cm^2 flasks containing 40 […] to 80-90% confluence. Cells were trypsinized from the flasks and a 1.0×10^7 cell suspension of HUXMA stem cells was warmed in Cyagen Chondrogenic Differentiation medium. 20 μl of warmed cell suspension was spotted in the middle of each well of a 24-well tissue culture plate (200,000 cells per spot), and incubated at 37° C. and 5% CO2 for one hour. […] Medium exchanges were performed every 3-4 days by aspirating the medium from the wells and replacing with fresh chondrogenic medium, diluted stocks, and TGF beta 3, as described above. […] Medium from the wells was removed and saved for further protein analysis. Qiagen RNeasy plus lysis buffer (with 2mercaptoethanol) was added to each well and gently shaken for 10 minutes. The lysed cell suspensions from each well were transferred to Qiashredder columns and spun at 14,000 rpm for 2 minutes. RNA isolation proceeded by RNeasyTM plus manufacturer's protocol. RNA was eluted from the Qiagen columns using 25 μl RNase free water. cDNA synthesis and real time PCR was conducted as follows. First strand synthesis of cDNA from all samples was performed in 20 μl total volume using 10 μl isolated RNA. All cDNA reactions were then diluted with 30 μl nuclease free water. Real time PCR was then performed using 5 μl diluted cDNA, Roche Syber green master mix, and Qiagen RT^2 gPCRTM primer pairs in 20 μl total reaction volume.

[4] = test system: MMP13; test: Stem cell chondrogenesis, real time PCR gene expression: MMP13; conditions: for regulation, MMP13 / Mean regulation, MMP13 / ΔCp, MMP13 / 2^-ΔΔCp vs saline, MMP13 / ΔΔCp vs saline, MMP13 / Mean ΔCp, MMP13: Day 7; for regulation, MMP13 / Mean regulation, MMP13: fold regulation vs saline; for regulation, MMP13 / ΔCp, MMP13 / 2^-ΔΔCp vs saline, MMP13 / ΔΔCp vs saline, MMP13: single replicate well; for Mean regulation, MMP13 / Mean ΔCp, MMP13: triplicate wells; for ΔCp, MMP13: human bone marrow MSC, chondrogenic medium + TGF beta 3; for ΔCp, MMP13 / 2^-ΔΔCp vs saline, MMP13 / ΔΔCp vs saline, MMP13 / Mean ΔCp, MMP13: vs Actin; for Cp, MMP13 / ΔΔCp vs saline / 2^-ΔΔCp vs saline / Mean regulation / Mean ΔCp / ΔCp: Day 22; for Cp, MMP13 / ΔΔCp vs saline / 2^-ΔΔCp vs saline / Mean regulation: MMP13; for Mean regulation: vs saline; for Mean ΔCp / ΔCp: MMP13 vs GAPDH
Description: (§1) • Stem Cells: Bone marrow derived human mesenchymal stem cells: Passage 5 Bone marrow derived human mesenchymal stem cells (HUXMA-01001, Cyagen Biosciences, Sunnyvale Calif.) • Mesenchymal Stem Cell Chondrogenic Differentiation medium (GUXMX-90041, Cyagen Biosciences, Sunnyvale Calif.) • TheraPEAK MSCGM chemically defined Stem cell medium (190632 Lonza) • 1 mM Dexamethasone acetate and mifepristone in absolute ethanol (Sigma) • Saline or 0.9% Sodium chloride for injection ZR Flush (Excelsior Medical, Neptune N.J.) • Sterile filtered 0.6 mM sodium caprylate in saline (sigma) • Sterile filtered 3 mM NAT in saline (sigma); To prepare, heat at 60° C. for 30 minutes then sonicate for 5 minutes. • Sterile filtered 10 mM DADKP in saline • 0.2 μM syringe filters • Hepes buffered saline, Trypsin/EDTA, Trypsin neutralizing solution (Lonza reagent pack) • 182 cm2 tissue culture flasks • pipettes and sterile tips • Tissue culture hood, humidified CO2 incubator, water or bead bath • 24 well tissue culture plates • Qiagen RNeasy plus spin columns (Qiagen 74134) • Qiagen RT2 qPCR primer pairs for Collagen 2A1, MMP13, TIMP1, Aggrecan, GAPDH, and Actin B • Roche Sybr green I master mix and Invitrogen Superscript VILO master mix. • Roche 480 lightcycler
(§2) The following stock drug treatment solutions were prepared in saline for injection and warmed to 37° C. in bath: • 4 μM dexamethasone • 4 μM mifepristone • 3 mM NAT • 0.6 mM caprylate • 80 μM DADKP • Mix of 3 mM NAT, 0.6 mM caprylate, 80 μM DADKP (“Ampion” mix)
(§3) Cyagen Chondrogenic Differentiation medium was prepared by manufacturer protocols but excluding dexamethasone and TGF beta 3 supplements, and warmed to 37° C. in bath.
(§4) The treatment protocol included expanding 5 HUXMA stem cells in 182 cm^2 flasks containing 40 mls TheraPEAK™ MSCGM to 80-90% confluence. Cells were trypsinized from the flasks and a 1.0×10^7 cell suspension of HUXMA stem cells was warmed in Cyagen Chondrogenic Differentiation medium. 20 μl of warmed cell suspension was spotted in the middle of each well of a 24-well tissue culture plate (200,000 cells per spot), and incubated at 37° C. and 5% CO2 for one hour.
(§5) The plates were removed from the incubator and an additional 720 μl chondrogenic medium was added to each well. 250 μl saline, or drug solutions were added to the appropriate wells in triplicate (bringing the final drug dilution to one-quarter of the stock drug treatment solution concentrations). 10 μl of TGF beta 3 solution (supplied by Cyagen) was added to each well, and the plates were returned to the incubator.
(§6) RNA isolation and analysis was conducted for all plates as follows at days 7, 14, and 22 post treatment (with the described medium exchanges). […] Qiagen RNeasy plus lysis buffer (with 2mercaptoethanol) was added to each well and gently shaken for 10 minutes. The lysed cell suspensions from each well were transferred to Qiashredder columns and spun at 14,000 rpm for 2 minutes. RNA isolation proceeded by RNeasy™ plus manufacturer's protocol. RNA was eluted from the Qiagen columns using 25 μl RNase free water.
(§7) cDNA synthesis and real time PCR was conducted as follows. First strand synthesis of cDNA from all samples was performed in 20 μl total volume using 10 μl isolated RNA. All cDNA reactions were then diluted with 30 μl nuclease free water. Real time PCR was then performed using 5 μl diluted cDNA, Roche Syber green master mix, and Qiagen RT^2 gPCR™ primer pairs in 20 μl total reaction volume. Relative gene expression was determined by delta deta Ct method.

[5] = test system: Aggrecan; test: Stem cell chondrogenesis, real time PCR gene expression: Aggrecan; conditions: Day 22; for Mean ΔCp / ΔCp: Aggrecan vs Actin; for Cp Agg / Mean regulation: Aggrecan; for Mean regulation: vs saline
Description: as §1, §2, §3, §4, §5, §6, §7

CC#C[C@]1(O)CC[C@H]2[C@@H]3CCC4=CC(=O)CCC4=C3[C@@H](c3ccc(N(C)C)cc3)C[C@@]21C [Mifepristone, mifepristone]
Cp Coll ([1]; Table 12): 25.99 and 27.6 and 26.84
Cp Coll ([1]; Table 16): 25.99 and 27.6 and 26.84
Mean regulation ([1]; Table 12): 16.82
Mean regulation ([1]; Table 16): 16.82
Mean ΔCp ([1]; Table 12): 9.22
ΔCp ([1]; Table 12): 8.52 and 10.14 and 9
Mean ΔCp ([1]; Table 16): 9.22
ΔCp ([1]; Table 16): 8.52 and 10.14 and 9
regulation, Collagen 2A1 ([1]; Day 7): −1.12 and −3.11 and −1.23
Mean regulation, Collagen 2A1 ([1]; Day 7): −1.82
ΔCp, Collagen 2A1 ([1]; Day 7): 6.9 and 8.37 and 7.03
2^-ΔΔCp vs saline, Collagen 2A1 ([1]; Day 7): 0.8909 and 0.3216 and 0.8141
ΔΔCp vs saline, Collagen 2A1 ([1]; Day 7): 0.167 and 1.637 and 0.297
Mean ΔCp, Collagen 2A1 ([1]; Day 7): 7.433
regulation, Collagen 2A1 ([1]; Day 14): 1.21 and 1.07 and 1.57
Mean regulation, Collagen 2A1 ([1]; Day 14): 1.28
ΔCp, Collagen 2A1 ([1]; Day 14): 10.78 and 10.96 and 10.41
2^-ΔΔCp vs saline, Collagen 2A1 ([1]; Day 14): 1.2114 and 1.0693 and 1.5655
ΔΔCp vs saline, Collagen 2A1 ([1]; Day 14): −0.28 and −0.1 and −0.65
Mean ΔCp, Collagen 2A1 ([1]; Day 14): 10.72
Cp TIMP1 ([2]; Table 12): 19.69 and 19.8 and 19.76
2-^ΔΔCp vs saline ([2]; Table 16): 0.6958 and 0.8448 and 0.6537
Cp TIMP1 ([2]; Table 16): 19.76 and 19.69 and 19.8
Mean regulation ([2]; Table 12): −1.38
Mean ΔCp ([2]; Table 12): 4.227
ΔCp ([2]; Table 12): 4.01 and 4.38 and 4.29
Mean ΔCp ([2]; Table 16): 4.227
ΔCp ([2]; Table 16): 4.29 and 4.01 and 4.38
regulation, SOX9 [3]: 1.24 and 1.17 and 1.16
Mean regulation, SOX9 [3]: 1.19
ΔCp, SOX9 [3]: 6.87 and 6.95 and 6.96
2^-ΔΔCp vs saline, SOX9 [3]: 1.2397 and 1.1728 and 1.1647
ΔΔCp vs saline, SOX9 [3]: −0.31 and −0.23 and −0.22
Mean ΔCp, SOX9 [3]: 6.927
regulation, MMP13 [4]: −1.49 and −1.34
Mean regulation, MMP13 [4]: −2.47
ΔCp, MMP13 [4]: 5.21 and 6.83 and 5.06
2^-ΔΔCp vs saline, MMP13 [4]: 0.6721 and 0.2186 and 0.7457
ΔΔCp vs saline, MMP13 [4]: 0.573 and 2.193 and 0.423
Mean ΔCp, MMP13 [4]: 5.7
Cp, MMP13 ([4]; Table 12): 20.98 and 21.32 and 21.37
ΔΔCp vs saline ([4]; Table 12): 0.517 and 0.867 and 0.537
2^-ΔΔCp vs saline ([4]; Table 16): 0.699 and 0.5484 and 0.6894
Cp, MMP13 ([4]; Table 16): 20.98 and 21.32 and 21.37
ΔΔCp vs saline ([4]; Table 16): 0.517 and 0.867 and 0.537
Mean regulation ([4]; Table 12): −1.57
Mean regulation ([4]; Table 16): −1.57
Mean ΔCp ([4]; Table 12): 3.633
ΔCp ([4]; Table 12): 3.51 and 3.86 and 3.53
Mean ΔCp ([4]; Table 16): 3.633
ΔCp ([4]; Table 16): 3.51 and 3.86 and 3.53
Mean ΔCp ([5]; Table 12): 9.247
ΔCp ([5]; Table 12): 10.29 and 8.98 and 8.47
Mean ΔCp ([5]; Table 16): 9.247
ΔCp ([5]; Table 16): 10.29 and 8.98 and 8.47
Cp Agg ([5]; Table 12): 25.97 and 24.4 and 23.94
Cp Agg ([5]; Table 16): 25.97 and 24.4 and 23.94
Mean regulation ([5]; Table 12): 1.55
Mean regulation ([5]; Table 16): 1.55

CC(=O)N[C@@H](Cc1c[nH]c2ccccc12)C(=O)O [NAT, N-acetyl-tryptophan]
Cp Coll ([1]; Table 12): 24.2 and 23.63 and 24.67
Cp Coll ([1]; Table 16): 24.2 and 23.63 and 24.67
Mean regulation ([1]; Table 12): 262.94
Mean regulation ([1]; Table 16): 262.94
Mean ΔCp ([1]; Table 12): 5.207
ΔCp ([1]; Table 12): 4.75 and 4.87 and 6
Mean ΔCp ([1]; Table 16): 5.207
ΔCp ([1]; Table 16): 4.75 and 4.87 and 6
regulation, Collagen 2A1 ([1]; Day 7): −1.40 and 1.01 and −1.43
Mean regulation, Collagen 2A1 ([1]; Day 7): −0.61
ΔCp, Collagen 2A1 ([1]; Day 7): 7.22 and 6.72 and 7.25
2^-ΔΔCp vs saline, Collagen 2A1 ([1]; Day 7): 0.7137 and 1.0093 and 0.699
ΔΔCp vs saline, Collagen 2A1 ([1]; Day 7): 0.487 and −0.01 and 0.517
Mean ΔCp, Collagen 2A1 ([1]; Day 7): 7.063
regulation, Collagen 2A1 ([1]; Day 14): −3.42 and 7.09 and 7.76
Mean regulation, Collagen 2A1 ([1]; Day 14): 3.81
ΔCp, Collagen 2A1 ([1]; Day 14): 12.83 and 8.23 and 8.1
2^-ΔΔCp vs saline, Collagen 2A1 ([1]; Day 14): 0.2925 and 7.0943 and 7.7633
ΔΔCp vs saline, Collagen 2A1 ([1]; Day 14): 1.773 and −2.83 and −2.96
Mean ΔCp, Collagen 2A1 ([1]; Day 14): 9.72
Cp TIMP1 ([2]; Table 12): 20.59 and 21.28 and 20.57
2-^ΔΔCp vs saline ([2]; Table 16): 1.2894 and 1.1225 and 1.1147
Cp TIMP1 ([2]; Table 16): 20.59 and 21.28 and 20.57
Mean regulation ([2]; Table 12): 1.18
regulation ([2]; Table 12): 1.29 and 1.12 and 1.11
regulation ([2]; Table 16): 1.29 and 1.12 and 1.11
Mean ΔCp ([2]; Table 12): 3.537
ΔCp ([2]; Table 12): 3.4 and 3.6 and 3.61
Mean ΔCp ([2]; Table 16): 3.537
ΔCp ([2]; Table 16): 3.4 and 3.6 and 3.61
regulation, SOX9 [3]: −2.30 and 2.11 and 2.04
Mean regulation, SOX9 [3]: 0.62
ΔCp, SOX9 [3]: 8.38 and 6.1 and 6.15
2^-ΔΔCp vs saline, SOX9 [3]: 0.4353 and 2.114 and 2.042
ΔΔCp vs saline, SOX9 [3]: 1.2 and −1.08 and −1.03
Mean ΔCp, SOX9 [3]: 6.877
regulation, MMP13 [4]: −1.43 and −1.81 and −2.45
Mean regulation, MMP13 [4]: −1.89
ΔCp, MMP13 [4]: 5.15 and 5.49 and 5.93
2^-ΔΔCp vs saline, MMP13 [4]: 0.7006 and 0.5535 and 0.408
ΔΔCp vs saline, MMP13 [4]: 0.513 and 0.853 and 1.293
Mean ΔCp, MMP13 [4]: 5.523
Cp, MMP13 ([4]; Table 12): 22.68 and 21.71 and 21.65
2^-ΔΔCp vs saline ([4]; Table 16): 0.8487 and 1.0305 and 1.0093
Cp, MMP13 ([4]; Table 16): 22.68 and 21.71 and 21.65
Mean regulation ([4]; Table 12): 0.29
Mean regulation ([4]; Table 16): 0.29
Mean ΔCp ([4]; Table 12): 3.053
ΔCp ([4]; Table 12): 3.23 and 2.95 and 2.98
Mean ΔCp ([4]; Table 16): 3.053
ΔCp ([4]; Table 16): 3.23 and 2.95 and 2.98
Mean ΔCp ([5]; Table 12): 7.1
ΔCp ([5]; Table 12): 8.24 and 5.62 and 7.44
Mean ΔCp ([5]; Table 16): 7.1
ΔCp ([5]; Table 16): 8.24 and 5.62 and 7.44
Cp Agg ([5]; Table 12): 25.43 and 23.3 and 24.4
Cp Agg ([5]; Table 16): 25.43 and 23.3 and 24.4
Mean regulation ([5]; Table 12): 11.66
Mean regulation ([5]; Table 16): 11.66
